Data reported in US20080280288A1, “Assay Method to Predict Sensitivity of Cancer Cell to Anticancer Drug” (priority 2004, published 2008).
Entries after “also recorded” stand apart in the source; their conditions may differ.

Key:
[1] = tested on: PC-3 (prostate) human cancer cell line; assay: PC-3 subcutaneous xenograft in nude mice, relative tumor volume ratio; assay type: in vivo; settings: PC-3 s.c. in nude mice; intravenously 10 mg/kg/day for five days
Protocol: (§1) The 25 human cancer cells proliferated in culture flasks or in the subcutaneous tissues of the nude mice were subcutaneously implanted to the bodysides of nude mice, and the mice were classified into a group of 5 control mice and a group of 5 treated mice of the compound 2 so that the average tumor volume of each group was uniform at the time of a tumor volume of 100 mm^3 or larger. The mice of the treated group were intravenously infused at 10 mg/kg/day for five days, and the mice of the control group were not treated or infused with the vehicle. The tumor volume was measured from day 1, subsequently measured over time on Day 5, 8, 12, 15, and a relative tumor volume ratio (T/C %)was estimated.
(§2) The cancer cells proliferated in culture flasks or in the subcutaneous tissues of the nude mice were subcutaneously implanted to the bodysides of nude mice, and the mice were classified into a group of 5 control mice and a group of 5 treated mice of the compounds so that the average tumor volume of each group was uniform at the time of a tumor volume of 100 mm^3 or larger. The mice of the treated group were intravenously infused at 10 mg/kg/day for five days, and the mice of the control group were not treated or infused with the vehicle. The tumor volume was measured from Day 1, and subsequently measured over time on Day 5, 8, 12, 15, and the relative tumor volume ratio was estimated. However, the experiment was basically discontinued at Day 15 in evaluation of the compound 1. In Table 2, the T/C % of the compounds 1, 2, 4 and the compound 2 in Example 2 to each cancer cell are shown.

[2] = tested on: BSY-1 (breast) human cancer cell line; assay: BSY-1 subcutaneous xenograft in nude mice, relative tumor volume ratio; assay type: in vivo; settings: for Tumor volume ratio (T/C %): BSY-1 s.c. in nude mice, intravenously 10 mg/kg/day for five days
Protocol: as §1, §2

[3] = tested on: NCI-H460 (NSCLC) human cancer cell line; assay: NCI-H460 subcutaneous xenograft in nude mice, relative tumor volume ratio; assay type: in vivo; settings: for Tumor volume ratio (T/C %): NCI-H460 s.c. in nude mice, intravenously 10 mg/kg/day for five days
Protocol: as §1, §2

[4] = tested on: human breast cancer cell line (BSY-1); settings: reported in WO 02/060890, WO 03/099813, WO 04/011661; cited from earlier work
[5] = tested on: HT-29 (colorectal) human cancer cell line; assay: HT-29 subcutaneous xenograft in nude mice, relative tumor volume ratio; assay type: in vivo; settings: HT-29 s.c. in nude mice; intravenously 10 mg/kg/day for five days
Protocol: as §1, §2

[6] = tested on: DLD-1 (colorectal) human cancer cell line; assay: DLD-1 subcutaneous xenograft in nude mice, relative tumor volume ratio; assay type: in vivo; settings: DLD-1 s.c. in nude mice; intravenously 10 mg/kg/day for five days
Protocol: as §1
(§3) The cancer cells proliferated in culture flasks or in the subcutaneous tissues of the nude mice were subcutaneously implanted to the bodysides of nude mice, and the mice were classified into a group of 5 control mice and a group of 5 treated mice of the compounds so that the average tumor volume of each group was uniform at the time of a tumor volume of 100 mm^3 or larger. The mice of the treated group were intravenously infused at 10 mg/kg/day for five days, and the mice of the control group were not treated or infused with the vehicle. The tumor volume was measured from Day 1, and subsequently measured over time on Day 5, 8, 12, 15, and the relative tumor volume ratio was estimated. […]

[7] = tested on: NCI-H596 (NSCLC) human cancer cell line; assay: NCI-H596 subcutaneous xenograft in nude mice, relative tumor volume ratio; assay type: in vivo; settings: NCI-H596 s.c. in nude mice; intravenously 10 mg/kg/day for five days
Protocol: as §1, §3

[8] = tested on: WiDr (colorectal) human cancer cell line; assay: WiDr subcutaneous xenograft in nude mice, relative tumor volume ratio; assay type: in vivo; settings: WiDr s.c. in nude mice; intravenously 10 mg/kg/day for five days
Protocol: as §1, §2

[9] = tested on: MDA-MB435 (breast) human cancer cell line; assay: MDA-MB435 subcutaneous xenograft in nude mice, relative tumor volume ratio; assay type: in vivo; settings: MDA-MB435 s.c. in nude mice; intravenously 10 mg/kg/day for five days
Protocol: as §1, §3

[10] = tested on: NCI-H522 (SCLC) human cancer cell line; assay: NCI-H522 subcutaneous xenograft in nude mice, relative tumor volume ratio; assay type: in vivo; settings: NCI-H522 s.c. in nude mice; intravenously 10 mg/kg/day for five days
Protocol: as §1, §3

[11] = tested on: FaDu (head & neck) human cancer cell line; assay: FaDu subcutaneous xenograft in nude mice, relative tumor volume ratio; assay type: in vivo; settings: FaDu s.c. in nude mice; intravenously 10 mg/kg/day for five days
Protocol: as §1, §2

[12] = tested on: OVCAR3 (ovarian) human cancer cell line; assay: OVCAR3 subcutaneous xenograft in nude mice, relative tumor volume ratio; assay type: in vivo; settings: OVCAR3 s.c. in nude mice; intravenously 10 mg/kg/day for five days
Protocol: as §1, §3

[13] = tested on: DU145 (prostate) human cancer cell line; assay: DU145 subcutaneous xenograft in nude mice, relative tumor volume ratio; assay type: in vivo; settings: DU145 s.c. in nude mice; intravenously 10 mg/kg/day for five days
Protocol: as §1, §2

[14] = tested on: KPL-4 (breast) human cancer cell line; assay: KPL-4 subcutaneous xenograft in nude mice, relative tumor volume ratio; assay type: in vivo; settings: KPL-4 s.c. in nude mice; intravenously 10 mg/kg/day for five days
Protocol: as §1

[15] = tested on: NCI-H510 (SCLC) human cancer cell line; assay: NCI-H510 subcutaneous xenograft in nude mice, relative tumor volume ratio; assay type: in vivo; settings: NCI-H510 s.c. in nude mice; intravenously 10 mg/kg/day for five days
Protocol: as §1

[16] = tested on: NCI-H69 (SCLC) human cancer cell line; assay: NCI-H69 subcutaneous xenograft in nude mice, relative tumor volume ratio; assay type: in vivo; settings: NCI-H69 s.c. in nude mice; intravenously 10 mg/kg/day for five days
Protocol: as §1

[17] = tested on: Calu-1 (NSCLC) human cancer cell line; assay: Calu-1 subcutaneous xenograft in nude mice, relative tumor volume ratio; assay type: in vivo; settings: Calu-1 s.c. in nude mice; intravenously 10 mg/kg/day for five days
Protocol: as §1

[18] = tested on: HBC4 (breast) human cancer cell line; assay: HBC4 subcutaneous xenograft in nude mice, relative tumor volume ratio; assay type: in vivo; settings: HBC4 s.c. in nude mice; intravenously 10 mg/kg/day for five days
Protocol: as §1

[19] = tested on: Lu99 (NSCLC) human cancer cell line; assay: Lu99 subcutaneous xenograft in nude mice, relative tumor volume ratio; assay type: in vivo; settings: Lu99 s.c. in nude mice; intravenously 10 mg/kg/day for five days
Protocol: as §1

[20] = tested on: NCI-H526 (SCLC) human cancer cell line; assay: NCI-H526 subcutaneous xenograft in nude mice, relative tumor volume ratio; assay type: in vivo
Protocol: as §1

[21] = tested on: NCI-H146 (SCLC) human cancer cell line; assay: NCI-H146 subcutaneous xenograft in nude mice, relative tumor volume ratio; assay type: in vivo
Protocol: as §1

[22] = tested on: LC-6-JCK (NSCLC) human cancer cell line; assay: LC-6-JCK subcutaneous xenograft in nude mice, relative tumor volume ratio; assay type: in vivo; settings: LC-6-JCK s.c. in nude mice; intravenously 10 mg/kg/day for five days
Protocol: as §1, §3

[23] = tested on: MDA-MB468 (breast) human cancer cell line; assay: MDA-MB468 subcutaneous xenograft in nude mice, relative tumor volume ratio; assay type: in vivo; settings: MDA-MB468 s.c. in nude mice; intravenously 10 mg/kg/day for five days
Protocol: as §1

[24] = tested on: KM12 (colorectal) human cancer cell line; assay: KM12 subcutaneous xenograft in nude mice, relative tumor volume ratio; assay type: in vivo; settings: KM12 s.c. in nude mice; intravenously 10 mg/kg/day for five days
Protocol: as §1

[25] = tested on: SW620 (colorectal) human cancer cell line; assay: SW620 subcutaneous xenograft in nude mice, relative tumor volume ratio; assay type: in vivo; settings: SW620 s.c. in nude mice; intravenously 10 mg/kg/day for five days
Protocol: as §1, §3

[26] = tested on: SK-OV-3 (ovarian) human cancer cell line; assay: SK-OV-3 subcutaneous xenograft in nude mice, relative tumor volume ratio; assay type: in vivo; settings: SK-OV-3 s.c. in nude mice; intravenously 10 mg/kg/day for five days
Protocol: as §1

[27] = tested on: human colon cancer cell line (WiDr); settings: reported in WO 03/099813 and related filings; cited from earlier work

SMILES | Tumor volume ratio (T/C %) [1] [%] | Tumor volume ratio (T/C %) [2] [%] | Tumor volume ratio (T/C %) [3] [%] | Tumor volume ratio (T/C %) [5] [%] | Tumor volume ratio (T/C %) [6] [%] | Tumor volume ratio (T/C %) [7] [%] | Tumor volume ratio (T/C %) [8] [%] | Tumor volume ratio (T/C %) [9] [%] | Tumor volume ratio (T/C %) [10] [%] | Tumor volume ratio (T/C %) [11] [%] | Tumor volume ratio (T/C %) [12] [%] | Tumor volume ratio (T/C %) [13] [%] | Tumor volume ratio (T/C %) [22] [%] | Tumor volume ratio (T/C %) [25] [%] | Antitumor activity to WiDr (in words) [27] | further results
CCC(O)C(C)C1OC1CC(C)/C=C/C=C(\C)C1OC(=O)CC(O)CCC(C)(O)C(OC(C)=O)/C=C/C1C (stereo not drawn) [Compound 1, (8E,12E,14E)-7-acetoxy-3,6,21-trihydroxy-6,10,12,16,20-pentamethyl-18,19-epoxytricosane-8,12,14-trien-11-olide] | 20 | 0 | 53 | 58 | 59 | 76 | 29 | 50 | 64 | 33 | 23 | 26 |  |  |  | Antitumor activity to BSY-1 (in words) [4]: high sensitivity; also recorded: high antitumor activity
CCC(O)C(C)C1OC1CC(C)(O)/C=C/C=C(\C)C1OC(=O)CC(O)CCC(C)(O)C(OC(=O)N2CCN(C3CCCCCC3)CC2)/C=C/C1C (stereo not drawn) [Compound 2, (8E,12E,14E)-7-((4-cycloheptylpiperazin-1-yl)carbonyl)oxy-3,6,16,21-tetrahydroxy-6,10,12,16,20-pentamethyl-18,19-epoxytricosane-8,12,14-trien-11-olide] | 2 | 0 | 33 | 28 | 47 | 18 | 4 | 28 | 42 | 3 | 0 | 28 | 0 | 28 |  | Tumor volume ratio (T/C %) [14]: 23%; Tumor volume ratio (T/C %) [15]: 10%; Tumor volume ratio (T/C %) [16]: 1%; Tumor volume ratio (T/C %) [17]: 55%; Sensitivity of the cancer cell line to the compound (in words) ([2]; BSY-1 xenograft in nude mice): high sensitivity until remission; Tumor volume ratio (T/C %) [18]: 5%; Tumor volume ratio (T/C %) [19]: 8%; Sensitivity of the cancer cell line to the compound (in words) ([3]; H460 xenograft in nude mice): low sensitivity; Sensitivity of the cancer cell line to the compound (in words) ([20]; H526 xenograft in nude mice): high sensitivity without remission; Tumor volume ratio (T/C %) ([20]; NCI-H526 s.c. in nude mice, intravenously 10 mg/kg/day for five days): 1%; Tumor volume ratio (T/C %) ([21]; NCI-H146 s.c. in nude mice, intravenously 10 mg/kg/day for five days): 1%; Course of the tumor (in words) ([21]; NCI-H146 xenograft in nude mice, tumor not eliminated): consecutive reduction of the tumor for a long term; Tumor volume ratio (T/C %) [23]: 0%; Tumor volume ratio (T/C %) [24]: 34%; Tumor volume ratio (T/C %) [26]: 27%
CCC(O)C(C)C1OC1CC(C)(O)/C=C/C=C(\C)C1OC(=O)CC(O)CCC(C)(O)C(OC(=O)N2CCN(C(C)C)CC2)/C=C/C1C (stereo not drawn) [Compound 3, (8E,12E,14E)-3,6,16,21-tetrahydroxy-7-((4-isopropylpiperazin-1-yl)carbonyl)oxy-6,10,12,16,20-pentamethyl-18,19-epoxytricosane-8,12,14-trien-11-olide] | 4 | 2 |  | 26 |  |  | 4 |  |  | 1 |  | 34 | 0 | 19 | antitumor activity | 
CCC(O)C(C)C1OC1CC(C)(O)/C=C/C=C(\C)C1OC(=O)CC(O)CCC(C)(O)C(OC(=O)N2CCN(C)CC2)/C=C/C1C (stereo not drawn) [Compound 4, (8E,12E,14E)-3,6,16,21-tetrahydroxy-6,10,12,16,20-pentamethyl-7-((4-methylpiperazin-1-yl)-carbonyl)oxy-18,19-epoxytricosane-8,12,14-trien-11-olide] | 3 |  |  | 46 |  |  | 7 |  |  | 5 |  | 26 |  |  | antitumor activity | 
